Test results published in patent US5494907A, “11-β substituted-19-nor steroids” (Roussel UCLAF, priority 1993, dated 1996).

Target: T1, hPR (recombinant human progesterone receptor) (Homo sapiens, UniProt P06401)
T1 construct: made in house; host or cells: SF9 insect cells (ATCC CRL1711), recombinant baculovirus (BaculoGold Transfection Kit, PharMingen 21000K)
T1 sequence (P06401 1-933): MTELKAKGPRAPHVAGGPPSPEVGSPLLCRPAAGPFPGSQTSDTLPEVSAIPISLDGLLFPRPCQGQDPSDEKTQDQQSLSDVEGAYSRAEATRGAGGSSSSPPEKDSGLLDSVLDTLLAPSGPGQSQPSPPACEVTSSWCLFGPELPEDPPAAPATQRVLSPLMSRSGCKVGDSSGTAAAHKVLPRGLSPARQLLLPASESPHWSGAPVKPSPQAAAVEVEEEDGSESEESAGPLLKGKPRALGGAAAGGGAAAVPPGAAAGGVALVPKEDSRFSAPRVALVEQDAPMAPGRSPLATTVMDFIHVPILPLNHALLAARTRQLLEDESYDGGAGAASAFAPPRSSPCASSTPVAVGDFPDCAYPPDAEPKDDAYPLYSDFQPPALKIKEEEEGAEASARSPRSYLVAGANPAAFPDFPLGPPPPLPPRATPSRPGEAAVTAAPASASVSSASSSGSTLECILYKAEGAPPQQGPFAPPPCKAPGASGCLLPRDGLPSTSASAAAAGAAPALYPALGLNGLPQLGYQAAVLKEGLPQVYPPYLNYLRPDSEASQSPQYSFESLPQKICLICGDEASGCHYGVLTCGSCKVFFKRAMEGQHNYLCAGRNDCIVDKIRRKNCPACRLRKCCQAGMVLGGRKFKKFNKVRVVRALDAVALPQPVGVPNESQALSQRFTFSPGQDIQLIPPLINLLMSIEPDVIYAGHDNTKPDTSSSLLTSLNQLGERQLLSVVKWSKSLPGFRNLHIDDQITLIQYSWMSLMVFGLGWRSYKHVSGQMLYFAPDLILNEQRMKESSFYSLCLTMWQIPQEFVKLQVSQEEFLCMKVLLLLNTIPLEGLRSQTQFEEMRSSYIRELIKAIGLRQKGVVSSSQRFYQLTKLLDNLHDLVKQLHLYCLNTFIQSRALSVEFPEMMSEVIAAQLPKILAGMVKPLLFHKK
Assay: Relative bond affinity (RBA) on recombinant human progesterone receptor, displacement of tritiated 17α,21-dimethyl-19-nor-Δ4,9-pregnadien-3,20-dione
Assay type: binding
Conditions: for RBA hPR: Progesterone = 100, 0° C., 24 hours; for affinity for the progesterone receptor (in words): conclusion in words
Text: 1--Activity on the hormonal receptors using either the natural hormonal receptor of a rat (AR), or the recombinant human receptor (PR, GR and ER).
Human progesterone receptor
The recombinant human progesterone receptor was obtained by superexpression in an insect-Baculovirus cell system by methodology described by WEBB et al. in Journal of Methods in Cell and Molecular Biology, (1990), Vol. 2 N° 4, pp. 173-188 and whose use is described for the expression of human hormonal receptors, for example the human glucocorticoid receptor (SRINIVASAN et al. Molecular Endocrinology, (1990), Vol. 4 N° 2, pp. 209-216).
The BaculoGold Transfection Kit was used (PharMingen, reference 21000K) to insert the cDNA fragment described by KASTNER et al. (The EMBO Journal, (1990), Vol. 9 N° 5, pp. 1603-1614), containing the region coding for the human progesterone receptor and to prepare the corresponding recombinant virus. The recombinant virus was used to express the progesterone receptor in SF9 insect cells (ATCC CRL1711), by the known methodology mentioned previously.
2×10^7 to 2.5×10^7 SF9 cells were cultivated in a […] "Falcon" flask in a TNM-FH "SIGMA" medium supplemented with 10% of foetal calf serum (FCS) and with 50 micrograms/ml of gentamycin. After infection, then incubation at 27° C. for 40 to 42 hours, the cells were lysed in 1 ml of lysis buffer (1) by a freezing-defrosting cycle which was repeated twice more. The supernatant containing the recombinant human progesterone receptor was kept in liquid nitrogen in doses of 1 ml. The supernatant was diluted at the time of use according to a dilution range varying from 1/10th to 1/100th with 10 mM Tris, 0.25 M saccharose, HCl buffer at pH 7.4 containing 0.1% gelatin and then was incubated at 0° C. for 24 hours with a constant concentration (T) of tritiated 17α,21-dimethyl-19-nor-Δ4,9-pregnadien-3,20-dione in the presence of increasing concentrations either of unlabelled progesterone (0-2500×10^-9 M), or of unlabelled product under test (1 to 25000×10^-9 M). The concentration of bound tritiated 17,21-dimethyl 19-nor-Δ4,9-[…] (B) was then measured in each incubate by the technique of adsorption with carbon dextran.
Calculation of the relative bond affinity (RBA).
The following 2 curves were traced: percentage of bound tritiated hormone B/BO as a function of the logarithm of the concentration of unlabelled reference hormone or as a function of the logarithm of the concentration of the unlabelled product under test.
The straight line of the following equation was determined:
BO=Concentration of bound tritiated hormone in the absence of any unlabelled product,
B=Concentration of bound tritiated hormone in the presence of a concentration X of unlabelled product,
B min=Concentration of bound tritiated hormone in the presence of a large excess of cold reference hormone (500 nM). The intersections of the straight line I50 and the curves allowed the evaluation of the concentrations of unlabelled reference hormone (CH) and of the unlabelled product under test (CX) which inhibited by 50% the specific binding of the tritiated hormone on the receptor.
The relative bond affinity (RBA) of the product under test was determined by the equation:
The RBA's of the reference products estradiol, progesterone, dexamethasone and testosterone were arbitrarily taken to be equal to 100.

| SMILES | RBA hPR | affinity for the progesterone receptor (in words) |
| --- | --- | --- |
| CCCCNS(=O)(=O)CCCCCOc1ccc([C@H]2C[C@]3(C)[C@@H](O)CC[C@H]3[C@@H]3CCc4cc(O)ccc4[C@H]32)cc1 [Example 2, N-butyl-5-[4-(Δ1,3,5(10)-estratrien-3,17β-diol-11β-yl)phenoxy]-pentanesulfonamide] | 37 | marked affinity |
| CCCCN(C)S(=O)(=O)CCCCCOc1ccc([C@H]2C[C@]3(C)[C@@H](O)CC[C@H]3[C@@H]3CCc4cc(O)ccc4[C@H]32)cc1 [Example 7, N-butyl-5-[4-(Δ1,3,5(10)-estratrien-3,17β-diol-11β-yl)phenoxy]-N-methyl-pentanesulfonamide] | 111 | marked affinity |
| CN(CC(F)(F)C(F)(F)C(F)(F)F)S(=O)(=O)CCCCCOc1ccc([C@H]2C[C@]3(C)[C@@H](O)CC[C@H]3[C@@H]3CCc4cc(O)ccc4[C@H]32)cc1 [Example 8, 5-[4-(Δ1,3,5(10)-estratrien-3,17β-diol-11βyl)-Phenoxy]-N-(2,2,3,3,4,4,4-heptafluorobutyl)-N-methyl-pentanesulfonamide] | 55 | marked affinity |
